Source: PubChem BioAssay (NCI)
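Tested at 5 concentrations; 48 h exposure; 96-well plates; endpoints linearly interpolated, else capped at highest concentration. GI50 marks 50% less growth. TGI: total growth inhibition.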

What was measured:
Experiment in all cases: growth of human tumour cells (NCI), 48 h
SF-295 CNS = test system: SF-295 CNS
HOP-62 NSCLC = test system: HOP-62 NSCLC
UO-31 renal = test system: UO-31 renal
SNB-75 CNS = test system: SNB-75 CNS
NCI-H23 lung = test system: NCI-H23 lung
UACC-62 melanoma = test system: UACC-62 melanoma
NCI-H460 lung = test system: NCI-H460 lung
NCI-H226 lung = test system: NCI-H226 lung
MDA-MB-231 breast = test system: MDA-MB-231 breast
MDA-MB-435 = test system: MDA-MB-435

SMILES	TGI (SF-295 CNS) [µM]	TGI (HOP-62 NSCLC) [µM]	TGI (UO-31 renal) [µM]	TGI (SNB-75 CNS) [µM]	TGI (NCI-H23 lung) [µM]	TGI (UACC-62 melanoma) [µM]	TGI (NCI-H460 lung) [µM]	TGI (NCI-H226 lung) [µM]	TGI (MDA-MB-231 breast) [µM]	TGI (MDA-MB-435) [µM]	GI50 (SF-295 CNS) [µM]	GI50 (HOP-62 NSCLC) [µM]	GI50 (UO-31 renal) [µM]	GI50 (SNB-75 CNS) [µM]	GI50 (MDA-MB-435) [µM]	GI50 (NCI-H23 lung) [µM]	GI50 (UACC-62 melanoma) [µM]
CO/C(=N\N=C\c1ccc(Cl)cc1)c1ccncc1	> 100	> 100	> 100	> 100	> 100	> 100	> 100	> 100	–	–	–	–	–	–	–	–	–
O=C(O)CC(NC(=O)Nc1ccc([N+](=O)[O-])cc1)C(=O)Nc1ccc([N+](=O)[O-])cc1 (stereo unspecified)	> 100	> 100	> 100	> 100	> 100	> 100	> 100	> 100	> 100	> 100	–	–	–	–	–	–	–
O=S(=O)(c1ccccc1)n1c(C(O)c2ccncc2)cc2ccccc21 (stereo unspecified)	> 100	> 100	44.7	> 100	> 100	98.9	> 100	> 100	> 100	> 100	–	–	–	–	–	–	–
CC(C)OC(=O)c1ccc(NCC2=CC(=O)C=CC2=O)cc1Cl	41.4	> 100	13.9	> 70.3	33.1	30.1	41	> 62.6	47.6	35.1	–	–	–	–	–	–	–
COc1ccc2oc(S(=O)(=O)N3CC(CCl)c4ccc([N+](=O)[O-])cc43)cc2c1 (stereo unspecified)	0.196	–	> 40.3	> 36.8	> 24	> 37.6	0.401	1.43	1.23	0.169	–	–	–	–	–	–	–
NNC(=O)CC(=O)Nc1ccc(Cl)cc1	> 100	> 100	> 100	> 100	> 100	> 100	> 100	> 100	> 100	> 100	–	–	–	–	–	–	–
CN(C)N=Nc1ccc([N+](=O)[O-])cc1C(N)=O	> 100	> 100	> 100	> 100	> 100	> 100	> 100	> 100	–	–	–	–	–	–	–	–	–
COc1ccc(-c2oc3ccc(C)cc3c(=O)c2O)cc1	> 100	> 100	> 100	> 100	> 100	> 100	–	> 100	> 100	> 100	–	–	–	–	–	–	–
O=C(CCc1cccc(O)c1)NCCc1cccc(O)c1	> 100	> 100	> 100	–	> 100	> 100	> 100	> 100	> 100	> 100	–	–	–	–	–	–	–
COc1cc2c(cc1OCCCC(=O)Nc1cc(C(=O)Nc3cc(C(=O)Nc4cc(C(=O)NCCCN(C)C)n(C)c4)n(C)c3)n(C)c1)N=C[C@@H]1CCCN1C2=O	26.4	9.83	3.06	9.95	4.4	6.53	17.6	37.9	5.53	3.48	–	–	–	–	–	–	–
COc1ccc(/C=N\N2CC(=O)N3C4C=CC(CC4)N3C2=O)cc1 (stereo unspecified)	> 100	> 100	> 100	> 100	> 100	> 100	> 100	> 100	> 100	> 100	–	–	–	–	–	–	–
CCCSc1cc(Cl)c(C)cc1S(=O)(=O)n1ccnc1OCCCN(C)C	> 100	> 100	> 100	–	> 100	> 100	> 100	> 100	> 100	> 100	–	–	–	–	–	–	–
COc1ccc2c(c1)OCC1(O)Cc3ccccc3OC21 (stereo unspecified)	> 100	> 100	> 100	> 100	> 100	> 100	–	> 100	> 100	> 100	–	–	–	–	–	–	–
Brc1ccc2c(-c3nc(-c4c[nH]c5ccccc45)cs3)c[nH]c2c1	> 100	> 100	> 100	> 100	> 88	> 100	> 100	> 100	> 89.4	> 100	–	–	–	–	–	–	–
Cn1ccnc1CCc1ccc(F)cc1F	> 100	> 100	> 100	> 100	> 100	> 100	> 100	> 100	> 100	> 100	–	–	–	–	–	–	–
COc1c(-c2cc(C)c(Cl)c(=O)[nH]2)c(O)c(OC)c2occc12	> 100	> 100	> 100	> 100	> 100	> 100	> 100	> 100	> 100	> 100	–	–	–	–	–	–	–
Cc1cn(C2CC(O)C(CO)C2C)c(=O)[nH]c1=O (stereo unspecified)	> 100	> 100	> 100	> 100	> 100	> 100	> 100	> 100	–	–	–	–	–	–	–	–	–
C(=N\Nc1ncc(-c2cc3cc4c(cc3o2)OCO4)s1)/c1c[nH]c2ccccc12	4.31	7.95	1.57	2.89	5.19	3.72	–	–	–	4.44	1.82	1.6	0.348	1.4	1.74	1.77	1.75
CCCC1NC(C#N)(C#N)C(CCC)NC1(C#N)C#N (stereo unspecified)	> 100	> 100	> 100	> 41.1	> 51.3	> 100	> 100	81.1	> 89.7	26.8	–	–	–	–	–	–	–
COc1cc2c(cc1OC)C1CN3C(=O)CCC3C(O)C1c1cc(OC)c(OC)cc1-2 (stereo unspecified)	> 100	> 100	> 100	> 100	> 100	> 100	> 100	–	> 100	> 100	–	–	–	–	–	–	–
O=C1C=Cc2c(Cl)sc(Cl)c21	27.1	4.2	–	13.1	5.68	8.64	45.2	16.1	> 100	5.31	–	–	–	–	–	–	–
